How the values were obtained:
[1] = molecular target: PDE4; assay: Inhibition of PDE4 (cytosolic enzyme preparation from U937 line), compared with rolipram; assay type: biochemical, human; settings: PDE4 enzyme preparation obtained from the U937 line
[2] = system: production of TNFα; assay: in vivo TNFα model in Wistar rats (LPS-induced); settings: oral administration 30 min before i.p. LPS; plasma 90 min after LPS; male Wistar rats
Excerpt: TNFα is a cytokine which plays a central role in the mechanisms of inflammation. Its production can be induced by an injection of lipopolysaccharide (LPS). It has been shown that the increase in intracellular cAMP, produced in particular by PDE4 inhibitors, decreases the production of TNFα in in vitro and in vivo models. It is thus a matter here of quantifying in vivo the anti-inflammatory potential of the compounds of the invention, administered orally (p.o.) by measuring the inhibition of the production of TNFα in the plasma of rats, these rats having received an intraperitoneal (i.p.) injection of lipopolysaccharide (LPS). The treatment with the compounds of the invention or the vehicle are [sic] administered orally to male Wistar rats, 30 min before the injection of LPS. The rats are sacrificed 90 min after the stimulation with LPS, the blood is collected onto EDTA and the TNFα concentration is measured in each plasma sample. […] References • Chen, Y. L., Le Vraux, V., Giroud, J. P. and Chauvelot-Moachon L. (1994). Anti-tumor necrosis factor properties of non-peptide drugs in acute-phase responses. […] Int. J. Immunopharmacol., 16 (10), 805-816. Model of Eosinophilia in Rats

SMILES | IC50 [1] | melting point | inhibition of the production of TNFα in the plasma of rats [2]
CCCn1nc(C(C)CC)c2c1C(=O)NCC(c1ccncc1)=N2 (racemic) [Example 71, (±)3-sec-Butyl-1-propyl-5-pyrid-4-yl-6,7-dihydro-1H-pyrazolo[4,3-e][1,4]diazepin-8-one] | 35 nM | 110 °C | excellent activity
CCn1nc(C)c2c1C(=O)NCC(c1ccc(OC)cc1)=N2 [Example 6, 1-Ethyl-5-(4-methoxyphenyl)-3-methyl-6,7-dihydro-1H-pyrazolo[4,3-e][1,4]diazepin-8-one] | 420 nM | 178 °C | excellent activity
CCn1nc(C)c2c1C(=O)NCC(c1ccc(N)cc1)=N2 [Example 12, 5-(4-Aminophenyl)-1-ethyl-3-methyl-6,7-dihydro-1H-pyrazolo-[4,3-e][1,4]diazepin-8-one] | 100 nM | 212 °C | excellent activity
CCCn1nc(C)c2c1C(=O)NCC(c1ccccc1)=N2 [Example 15, 3-Methyl-5-phenyl-1-propyl-6,7-dihydro-1H-pyrazolo-[4,3-e][1,4]diazepin-8-one] | 520 nM | 171 °C | excellent activity
Cc1nn(CCO)c2c1N=C(c1ccccc1)CNC2=O [Example 16, 1-(2-Hydroxyethyl)-3-methyl-5-phenyl-6,7-dihydro-1H-pyrazolo[4,3-e][1,4]diazepin-8-one] | 420 nM | 75 °C | excellent activity
CCn1nc(C)c2c1C(=O)NCC(c1cccc(N)c1)=N2 [Example 24, 5-(3-Aminophenyl)-1-ethyl-3-methyl-6,7-dihydro-1H-pyrazolo[4,3-e][1,4]diazepin-8-one] | 78 nM | 80 °C | excellent activity
CCn1nc(C(C)(C)C)c2c1C(=S)NCC(c1ccccc1)=N2 [Example 25, 3-tert-Butyl-1-ethyl-5-phenyl-6,7-dihydro-1H-pyrazolo[4,3-e][1,4]diazepin-8-thione] | 2.4 nM | 230 °C | excellent activity
CCn1nc(C(C)(C)C)c2c1C(=O)NCC(c1ccc(N)cc1)=N2 [Example 26, 5-(4-Aminophenyl)-3-tert-butyl-1-ethyl-6,7-dihydro-1H-pyrazolo[4,3-e][1,4]diazepin-8-one] | 5.6 nM | 189 °C | excellent activity
CCn1nc(C)c2c1C(=O)NCC(C1CCCCC1)=N2 [Example 31, 5-Cyclohexyl-1-ethyl-3-methyl-6,7-dihydro-1H-pyrazolo[4,3-e][1,4]diazepin-8-one] | 190 nM | 50 °C | excellent activity
CCn1nc(C(C)(C)C)c2c1C(=O)NCC(c1ccc(C)cc1)=N2 [Example 45, 3-tert-Butyl-1-ethyl-5-p-tolyl-6,7-dihydro-1H-pyrazolo[4,3-e][1,4]diazepin-8-one] | 2.6 nM | – | excellent activity
CCn1nc(C(C)(C)C)c2c1C(=O)NCC(c1ccc(C#N)cc1)=N2 [Example 46, 4-(3-tert-Butyl-1-ethyl-8-oxo-1,6,7,8-tetrahydro-pyrazolo[4,3-e][1,4]diazepin-5-yl)benzonitrile] | 0.84 nM | – | excellent activity
CCn1nc(C)c2c1C(=NC#N)NCC(c1ccccc1)=N2 [Example 55, 1-Ethyl-3-methyl-5-phenyl-6,7-dihydro-1H-pyrazolo[4,3-e][1,4]diazepin-8-ylidenecyanamide] | 1.7 nM | 280 °C | excellent activity
CCn1nc(C2CCCCC2)c2c1C(=O)NCC(c1ccncc1)=N2 [Example 73, 3-Cyclohexyl-1-ethyl-5-pyrid-4-yl-6,7-dihydro-1H-pyrazolo-[4,3-e][1,4]diazepin-8-one] | 0.73 nM | 126 to 127 °C | excellent activity

Now from value to molecule, other results behind:

IC50 [1] | melting point | SMILES | inhibition of the production of TNFα in the plasma of rats [2]
13 nM | 86 to 88.5 °C | CCC(C)c1nn(CC)c2c1N=C(c1ccncc1)CNC2=O (racemic) [Example 69, (±)3-sec-Butyl-1-ethyl-5-pyrid-4-yl-6,7-dihydro-1H-pyrazolo[4,3-e][1,4]diazepin-8-one] | excellent activity
4.9 nM | 157.2 °C | CCn1nc(C(C)C)c2c1C(=O)NCC(c1ccccc1)=N2 [Example 1, 1-Ethyl-3-isopropyl-5-phenyl-6,7-dihydro-1H-pyrazolo[4,3-e][1,4]diazepin-8-one] | excellent activity
0.98 nM | 164 °C | CCn1nc(C(C)C)c2c1C(=S)NCC(c1ccccc1)=N2 [Example 2, 1-Ethyl-3-isopropyl-5-phenyl-6,7-dihydro-1H-pyrazolo[4,3-e][1,4]diazepin-8-thione] | excellent activity
0.12 nM | 222 °C | CCn1nc(C(C)C)c2c1C(=NC#N)NCC(c1ccccc1)=N2 [Example 3, 1-Ethyl-3-isopropyl-5-phenyl-6,7-dihydro-1H-pyrazolo[4,3-e][1,4]diazepin-8-ylidenecyanamide] | excellent activity
5.9 nM | 203.5 °C | CCn1nc(C)c2c1C(=S)NCC(c1ccccc1)=N2 [Example 17, 1-Ethyl-3-methyl-5-phenyl-6,7-dihydro-1H-pyrazolo[4,3-e][1,4]diazepin-8-thione] | excellent activity
2.6 nM | 160 °C | CCn1nc(C(C)(C)C)c2c1C(=O)NCC(c1ccccc1)=N2 [Example 21, 3-tert-Butyl-1-ethyl-5-phenyl-6,7-dihydro-1H-pyrazolo[4,3-e][1,4]diazepin-8-one] | excellent activity
42 nM | 185 °C | CCn1nc(C)c2c1C(=O)NCC(c1ccc(C)cc1)=N2 [Example 23, 1-Ethyl-3-methyl-5-p-tolyl-6,7-dihydro-1H-pyrazolo[4,3-e][1,4]diazepin-8-one] | excellent activity
90 nM | 250 °C | CCn1nc(C)c2c1C(=O)NCC(c1ccc(O)cc1)=N2 [Example 28, 1-Ethyl-5-(4-hydroxyphenyl)-3-methyl-6,7-dihydro-1H-pyrazolo[4,3-e][1,4]diazepin-8-one] | excellent activity
130 nM | 148 °C | CCn1nc(C)c2c1C(=O)NCC(c1ccncc1)=N2 [Example 32, 1-Ethyl-3-methyl-5-pyrid-4-yl-6,7-dihydro-1H-pyrazolo[4,3-e][1,4]diazepin-8-one] | excellent activity
4.7 nM | 105.4 °C | CCCCc1nn(CC)c2c1N=C(c1ccccc1)CNC2=O [Example 34, 3-Butyl-1-ethyl-5-phenyl-6,7-dihydro-1H-pyrazolo[4,3-e][1,4]diazepin-8-one] | excellent activity
10 nM | – | CCCn1nc(C(C)C)c2c1C(=O)NCC(c1ccc(C#N)cc1)=N2 [Example 42, 4-(3-Isopropyl-8-oxo-1-propyl-1,6,7,8-tetrahydro-pyrazolo[4,3-e][1,4]diazepin-5-yl)benzonitrile] | excellent activity
4.9 nM | – | CCCn1nc(C2CCCCC2)c2c1C(=O)NCC(c1ccncc1)=N2 [Example 75, 3-Cyclohexyl-1-propyl-5-pyrid-4-yl-6,7-dihydro-1H-pyrazolo-[4,3-e][1,4]diazepin-8-one] | excellent activity

From patent publication US6962912B2, “Substituted pyrazolo[4,3-e]diazepines, pharmaceutical compositions containing them, use as medicinal products and processes for preparing them” (Warner-Lambert LLC, priority 2000, dated 2005)
